# Entries after “also recorded” stand apart in the source; their conditions may differ.
# How the values were obtained:
# [1] = tested on: various human lymphoma cells (mantle cell lines); experiment: In vitro MTT cytotoxicity assay, human lymphoma cells; type: cell-based
# Description: (§1) Effect of Compound SC-06-K analogues were selected to test their feasibility against representative mantle cell lines and diffuse large B-cell lymphoma (DLBCL) cell lines using cell viability assays.
# [2] = tested on: human diffuse large B-cell lymphoma cells; experiment: In vitro MTT cytotoxicity assay, DLBCL cells; type: cell-based; conditions: various human diffuse large B-cell lymphoma cells
# Description: as §1
# MCF-7 tumors = experiment: Imaging of nude mice bearing breast tumors, MCF-7 tumor; conditions: MCF-7, at 0.5 hrs
# MDA-MB-231 tumors = experiment: Imaging of nude mice bearing breast tumors, MDA-MB-231 tumor; conditions: MDA-MB-231, at 0.5 hrs
Structure (SMILES),MTT cytotoxicity [1],MTT cytotoxicity [2],Tumor/muscle count density ratios (MCF-7 tumors),Tumor/muscle count density ratios (MDA-MB-231 tumors)
"Cn1cnc([N+](=O)[O-])c1Sc1ncnc2c1ncn2CC(O)CN1CCNCCNCCNCC1 (stereo not shown) [SC-06-K-1, Cyclen-Hydroxypropyl-Azathioprine Conjugate]",inhibited cancer cells in dose-dependent manners; also recorded: inhibited cancer cells in a dose-dependent manner,inhibited various human diffuse large B-cell lymphoma cells in a dose-dependent manner; also recorded: inhibited cancer cells in a dose-dependent manner,,
"OC[C@H]1OC(O)[C@H]([18F])[C@@H](O)[C@@H]1O (stereo partly shown) [^18F-FDG, 2′-fluorodeoxyglucose]",,,0.28,0.25

# From US20230226230A1, “THIOPURINE-BASED COMPOUND, COMPOSITION, METHOD OF PREPARATION AND APPLICATIONS” (SEECURE TAIWAN CO., LTD., priority 2021, published 2023)
